Experimental data published in patent US20260199213A1, “PEPTIDE HAVING ACTIVITY OF IMPROVING STATE OF SKIN, AND USE THEREOF” (CAREGEN CO., LTD., priority 2022, published 2026).

Key:
Type in all cases: cell-based
[1] = test system: Col1a1; assay: Col1a1 expression by RT-PCR in NIH3T3 cells; conditions: 10 μM, 50 μM or 1000 μM peptide, 24 hours, vs untreated group
Experimental: In this example, the aim was to confirm the effect of the peptide according to an example on improving endogenous skin aging, including improvement of wrinkles and enhancement of elasticity, etc., by evaluating the expression levels of collagen type 1 (Col1a1), fibronectin, elastin, and hyaluronic acid, which are known components of the dermis.
Specifically, NIH3T3 cells were seeded in a 6-well plate at a density of 3×10^5 cells/well and cultured for 24 hours. Next, the cells were washed once with serum-free DMEM media, and 10 μM, 50 μM or 1000 μM of a peptide consisting of an amino acid sequence of SEQ ID NO: 1 was dispensed into 1 mL of the serum-free media, and cultured in a CO2 incubator at 37° C. for 24 hours. Next, the culture was washed twice with PBS, and RNA was isolated from the culture using easy blue (iNtRON, Cat. No.: 17061, Korea). Next, using an RT kit (Enzynomics, Cat. NO.: RT200, Korea), the isolated RNA was reverse transcribed to synthesize the respective cDNA. Next, using the synthesized 1 ug cDNA, primers for Colla1, fibronectin, or elastin, and a PCR kit (Enzynomics, Cat. No.: P581T, Korea), polymerase chain reaction (PCR) was performed. […]

[2] = test system: AQP3; assay: AQP3 expression reduced by ultraviolet rays in HaCaT cells (RT-PCR); conditions: 15 mJ/cm^2 UV, 10 μM, 50 μM or 1000 μM peptide, 8 hours
Experimental: In this example, the aim was to confirm the effect of the peptide according to an embodiment on the recovery of skin barrier factors in damaged skin cells by evaluating changes in the levels of skin barrier factors in skin cells reduced by ultraviolet irradiation.
Specifically, HaCaT cells were seeded in a 6-well plate at a density of 5×10^5 cells/well and cultured for 24 hours. Next, the cells were washed once with serum-free DMEM media, and 10 μM, 50 μM or 1000 μM of the peptide consisting of the amino acid sequence of SEQ ID NO: 1 was dispensed into 1 mL of the serum-free media, and cultured in a CO2 incubator at 37° C. for 1 hour. Next, the above culture was transferred to an e-tube, mixed with 1 ml of PBS, and dispensed into a well plate. Next, using a UV irradiator (VILBER LOURMAT, Cat No.: 3102-BSU, France), 15 mJ/cm^2 ultraviolet rays were irradiated to the HaCaT cells. Next, the PBS in the well plate was removed, 900 μL of the culture medium in which the peptides were dispensed was added, and the plate was cultured in a CO2 incubator at 37° C. for 8 hours. Next, the culture was washed twice with PBS, and RNA was isolated from the culture using easy blue (iNtRON, Cat. No.: 17061, Korea). Next, using an RT kit (Enzynomics, Cat. NO.: RT200, Korea), the isolated RNA was reverse transcribed to synthesize the respective cDNA. […]

[3] = test system: sirtuin-1 (SIRT-1); assay: SIRT-1 expression by RT-PCR in HaCaT cells; conditions: 10 μM, 50 μM or 1000 μM peptide, 24 hours
Experimental: In this example, the aim was to confirm the effect of the peptides according to an example on strengthening the skin barrier, by evaluating the expression levels of sirtuin-1 (SIRT-1) or aquaporin-3 (AQP3).
Specifically, HaCaT cells were seeded in a 6-well plate at a density of 3×10^5 cells/well and cultured for 24 hours. Next, the cells were washed once with serum-free DMEM media, and 10 μM, 50 μM or 1000 μM of the peptide consisting of the amino acid sequence of SEQ ID NO: 1 was dispensed into 1 mL of the serum-free media, and cultured in a CO2 incubator at 37° C. for 24 hours. Next, the culture was washed twice with PBS, and RNA was isolated from the culture using easy blue (iNtRON, Cat. No.: 17061, Korea). Next, using an RT kit (Enzynomics, Cat. NO.: RT200, Korea), the isolated RNA was reverse transcribed to synthesize the respective cDNA. Next, using the synthesized 1 ug cDNA, primers for SIRT-1 or AQP3, and a PCR kit (Enzynomics, Cat. No.: P581T, Korea), polymerase chain reaction (PCR) was performed. Meanwhile, in this example, an untreated group was used as the control group, and a group to which EGF was added was used as a positive control group, the nucleotide sequences of the primers used in this example are shown in Table 3 below.

[4] = test system: reactive oxygen species in NIH3T3 cells; assay: Reactive oxygen species increased by ultraviolet rays in NIH3T3 cells (DCF-DA, flow cytometry); conditions: fibroblasts (NIH3T3); 6 J/cm^2 UV; 10 μM, 50 μM or 1000 μM peptide; 24 hours
Experimental: In this example, the aim was to confirm the effect of the peptide according to an embodiment on the antioxidant effect in damaged skin, by evaluating the change in the level of reactive oxygen species in skin cells increased by ultraviolet irradiation.
Specifically, NIH3T3 cells or HaCaT cells were seeded in a 6-well plate at a density of 5×10^5 cells/well and cultured for 24 hours. Next, the cells were washed once with serum-free DMEM media, and 10 μM, 50 μM or 1000 μM of the peptide consisting of the amino acid sequence of SEQ ID NO: 1 was dispensed into 1 mL of the serum-free media, and cultured in a CO2 incubator at 37° C. for 1 hour. Next, the above culture was transferred to an e-tube, mixed with 1 ml of PBS, and dispensed into a well plate. Next, using a UV irradiator (VILBER LOURMAT, Cat No.: 3102-BSU, France), 6 J/cm^2 ultraviolet rays were irradiated to NIH3T3 cells, and 15 mJ/cm^2 ultraviolet rays were irradiated to HaCaT cells. Next, the PBS in the well plate was removed, 900 μL of the culture medium in which the peptides were dispensed was added, and the plate was cultured in a CO2 incubator at 37° C. for 24 hours. […] After washing the centrifuged cells with PBS, FL1 fluorescence values were measured through flow cytometry (FACS, BD, USA). […]

Substance: GPRGDP [SEQ ID NO: 1]
- expression of Col1a1 [1]: increased
- expression of AQP3 reduced by ultraviolet irradiation [2]: increased or restored
- expression of skin barrier factor SIRT-1 [3]: increases
- level of reactive oxygen species increased by ultraviolet irradiation [4]: reduced
